{"source": "ChEMBL document CHEMBL1201862", "about": "“PubChem BioAssay data set” (2004)", "test_in_all_cases": "NCI anticancer screen, dose series, 48 h", "key": {"[1]": {"tested_on": "786-0"}, "[2]": {"tested_on": "A498"}, "[3]": {"tested_on": "A549"}, "[4]": {"tested_on": "ACHN"}, "[5]": {"tested_on": "BT-549"}, "[6]": {"tested_on": "CAKI-1"}, "[7]": {"tested_on": "CCRF-CEM"}, "[8]": {"tested_on": "COLO 205"}, "[9]": {"tested_on": "DU-145"}, "[10]": {"tested_on": "EKVX"}, "[11]": {"tested_on": "HCC 2998"}, "[12]": {"tested_on": "HCT-116"}, "[13]": {"tested_on": "HCT-15"}, "[14]": {"tested_on": "HL-60"}, "[15]": {"tested_on": "HOP-62"}, "[16]": {"tested_on": "HOP-92"}, "[17]": {"tested_on": "HT-29"}, "[18]": {"tested_on": "Hs-578T"}, "[19]": {"tested_on": "IGROV-1"}, "[20]": {"tested_on": "K562"}, "[21]": {"tested_on": "KM12"}, "[22]": {"tested_on": "LOX IMVI"}, "[23]": {"tested_on": "M14"}, "[24]": {"tested_on": "MCF7"}, "[25]": {"tested_on": "MDA-MB-231"}, "[26]": {"tested_on": "MDA-MB-435"}, "[27]": {"tested_on": "MDA-N"}, "[28]": {"tested_on": "MOLT-4"}, "[29]": {"tested_on": "Malme-3M"}, "[30]": {"tested_on": "NCI-H226"}, "[31]": {"tested_on": "NCI-H23"}, "[32]": {"tested_on": "NCI-H460"}, "[33]": {"tested_on": "NCI-H522"}, "[34]": {"tested_on": "NCI/ADR-RES"}, "[35]": {"tested_on": "OVCAR-3"}, "[36]": {"tested_on": "OVCAR-4"}, "[37]": {"tested_on": "OVCAR-5"}, "[38]": {"tested_on": "OVCAR-8"}, "[39]": {"tested_on": "PC-3"}, "[40]": {"tested_on": "RPMI-8226"}, "[41]": {"tested_on": "RXF 393"}, "[42]": {"tested_on": "SF-268"}, "[43]": {"tested_on": "SF-295"}, "[44]": {"tested_on": "SF-539"}, "[45]": {"tested_on": "SK-MEL-28"}, "[46]": {"tested_on": "SK-MEL-2"}, "[47]": {"tested_on": "SK-MEL-5"}, "[48]": {"tested_on": "SK-OV-3"}, "[49]": {"tested_on": "SN12C"}, "[50]": {"tested_on": "SNB-19"}, "[51]": {"tested_on": "SNB-75"}, "[52]": {"tested_on": "SR"}, "[53]": {"tested_on": "SW-620"}, "[54]": {"tested_on": "T47D"}, "[55]": {"tested_on": "TK-10"}, "[56]": {"tested_on": "U-251"}, "[57]": {"tested_on": "UACC-257"}, "[58]": {"tested_on": "UACC-62"}, "[59]": {"tested_on": "UO-31"}}, "note": "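Values below derive from 48-hour exposures of cells grown in 96-well plates, with endpoints linearly interpolated between the two concentrations bracketing the appropriate inhibition level. GI50 is the concentration that inhibits growth by half.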 Active and inactive are the calls of the source. Cut-off read from the data, not from the text of the source: active = GI50 up to about 1.1 µM and inactive = higher."}
{"compound": "Nc1ccc2c(=O)cc(-c3cccs3)[nH]c2n1", "values": [{"measurement": "GI50", "setting": "[1]", "result": "3450 nM (inactive)"}, {"measurement": "GI50", "setting": "[2]", "result": "> 37800 nM (inactive)"}, {"measurement": "GI50", "setting": "[3]", "result": "3650 nM (inactive)"}, {"measurement": "GI50", "setting": "[4]", "result": "11700 nM (inactive)"}, {"measurement": "GI50", "setting": "[5]", "result": "4880 nM (inactive)"}, {"measurement": "GI50", "setting": "[6]", "result": "6670 nM (inactive)"}, {"measurement": "GI50", "setting": "[7]", "result": "2210 nM (inactive)"}, {"measurement": "GI50", "setting": "[8]", "result": "716 nM (active)"}, {"measurement": "GI50", "setting": "[9]", "result": "5900 nM (inactive)"}, {"measurement": "GI50", "setting": "[10]", "result": "6500 nM (inactive)"}, {"measurement": "GI50", "setting": "[11]", "result": "2190 nM (inactive)"}, {"measurement": "GI50", "setting": "[12]", "result": "1250 nM (inactive)"}, {"measurement": "GI50", "setting": "[13]", "result": 1290, "unit": "nM"}, {"measurement": "GI50", "setting": "[14]", "result": "234 nM (active)"}, {"measurement": "GI50", "setting": "[15]", "result": "7310 nM (inactive)"}, {"measurement": "GI50", "setting": "[16]", "result": "9100 nM (inactive)"}, {"measurement": "GI50", "setting": "[17]", "result": "3660 nM (inactive)"}, {"measurement": "GI50", "setting": "[18]", "result": "3660 nM (inactive)"}, {"measurement": "GI50", "setting": "[19]", "result": "2640 nM (inactive)"}, {"measurement": "GI50", "setting": "[20]", "result": "847 nM (active)"}, {"measurement": "GI50", "setting": "[21]", "result": "535 nM (active)"}, {"measurement": "GI50", "setting": "[22]", "result": "1070 nM (active)"}, {"measurement": "GI50", "setting": "[23]", "result": "1600 nM (inactive)"}, {"measurement": "GI50", "setting": "[24]", "result": "1120 nM (inactive)"}, {"measurement": "GI50", "setting": "[25]", "result": "11800 nM (inactive)"}, {"measurement": "GI50", "setting": "[26]", "result": "285 nM (active)"}, {"measurement": "GI50", "setting": "[27]", "result": "223 nM (active)"}, {"measurement": "GI50", "setting": "[28]", "result": "1510 nM (inactive)"}, {"measurement": "GI50", "setting": "[29]", "result": "8180 nM (inactive)"}, {"measurement": "GI50", "setting": "[30]", "result": "2420 nM (inactive)"}, {"measurement": "GI50", "setting": "[31]", "result": "2890 nM (inactive)"}, {"measurement": "GI50", "setting": "[32]", "result": "2770 nM (inactive)"}, {"measurement": "GI50", "setting": "[33]", "result": "1360 nM (inactive)"}, {"measurement": "GI50", "setting": "[34]", "result": "1060 nM (active)"}, {"measurement": "GI50", "setting": "[35]", "result": "3320 nM (inactive)"}, {"measurement": "GI50", "setting": "[36]", "result": "> 35700 nM (inactive)"}, {"measurement": "GI50", "setting": "[37]", "result": "15300 nM (inactive)"}, {"measurement": "GI50", "setting": "[38]", "result": "2860 nM (inactive)"}, {"measurement": "GI50", "setting": "[39]", "result": "1740 nM (inactive)"}, {"measurement": "GI50", "setting": "[40]", "result": "1540 nM (inactive)"}, {"measurement": "GI50", "setting": "[41]", "result": "4170 nM (inactive)"}, {"measurement": "GI50", "setting": "[42]", "result": "8930 nM (inactive)"}, {"measurement": "GI50", "setting": "[43]", "result": "3100 nM (inactive)"}, {"measurement": "GI50", "setting": "[44]", "result": "1480 nM (inactive)"}, {"measurement": "GI50", "setting": "[45]", "result": "4320 nM (inactive)"}, {"measurement": "GI50", "setting": "[46]", "result": "6320 nM (inactive)"}, {"measurement": "GI50", "setting": "[47]", "result": "1030 nM (active)"}, {"measurement": "GI50", "setting": "[48]", "result": "5250 nM (inactive)"}, {"measurement": "GI50", "setting": "[49]", "result": "5160 nM (inactive)"}, {"measurement": "GI50", "setting": "[50]", "result": "7380 nM (inactive)"}, {"measurement": "GI50", "setting": "[51]", "result": "2460 nM (inactive)"}, {"measurement": "GI50", "setting": "[52]", "result": "151 nM (active)"}, {"measurement": "GI50", "setting": "[53]", "result": "1010 nM (active)"}, {"measurement": "GI50", "setting": "[54]", "result": "3130 nM (inactive)"}, {"measurement": "GI50", "setting": "[55]", "result": "7130 nM (inactive)"}, {"measurement": "GI50", "setting": "[56]", "result": "2750 nM (inactive)"}, {"measurement": "GI50", "setting": "[57]", "result": "5900 nM (inactive)"}, {"measurement": "GI50", "setting": "[58]", "result": "2300 nM (inactive)"}, {"measurement": "GI50", "setting": "[59]", "result": "3540 nM (inactive)"}]}
